In ChEMBL document CHEMBL5360613, “Unveiling New KRASG12D Inhibitors: A Promising Approach for Pancreatic Cancer Therapy” (ACS Med Chem Lett, 2023):

Biological target: GTPase KRas (Homo sapiens, UniProt P01116, G12D)
Assay: Inhibition of KRAS G12D mutant in human PANC-1 cells assessed as reduction in phosphorylation of ERK 1/2 level incubated for 3 hrs
Format: cell-based

Chain of GTPase KRas (P01116 whole entry G12D): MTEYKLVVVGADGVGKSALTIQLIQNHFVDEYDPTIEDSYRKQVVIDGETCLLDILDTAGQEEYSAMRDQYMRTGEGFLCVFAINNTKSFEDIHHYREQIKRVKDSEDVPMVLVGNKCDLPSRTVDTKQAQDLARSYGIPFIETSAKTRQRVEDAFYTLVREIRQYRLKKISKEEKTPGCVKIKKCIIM

Compound | IC50
C#Cc1c(F)ccc2cc(O)cc(-c3ncc4c(N5C[C@H]6CC[C@@H](C5)N6)cc(C#C[C@@]56CCCN5C[C@H](F)C6)nc4c3F)c12 | 439 nM
CCc1c(F)ccc2cc(O)cc(-c3ncc4c(N5C[C@H]6CC[C@@H](C5)N6)cc(C#C[C@@]56CCCN5C[C@H](F)C6)nc4c3F)c12 | 305 nM
Oc1cc(N2CCc3c(nc(OCC45CCCN4CCC5)nc3N3C[C@H]4CC[C@@H](C3)N4)C2)c2c(Cl)cccc2c1 | 15 nM
C#Cc1c(F)ccc2cc(O)cc(-c3ncc4c(N5CC6CCC(C)(C5)N6)cc(OC[C@@]56CCCN5C[C@H](F)C6)nc4c3F)c12 (stereo partly drawn) | 24 nM
Oc1cc(-c2ncc3c(N4C[C@H]5CC[C@@H](C4)N5)cc(OC[C@@]45CCCN4C[C@H](F)C5)nc3c2F)c2c(F)cccc2c1 | 40 nM

Results, then the compound that gave them:

IC50 | Compound
9.5 nM | C#Cc1cccc2cc(O)cc(-c3ncc4c(N5C[C@H]6CC[C@@H](C5)N6)cc(OC[C@@]56CCCN5C[C@H](F)C6)nc4c3F)c12
7.9 nM | C#Cc1c(F)ccc2cc(O)cc(-c3ncc4c(N5C[C@H]6CC[C@@H](C5)N6)cc(OC[C@@]56CCCN5C[C@H](F)C6)nc4c3F)c12
46 nM | CCc1c(F)ccc2cc(O)cc(-c3ncc4c(N5C[C@H]6CC[C@@H](C5)N6)cc(OC[C@@]56CCCN5C[C@H](F)C6)nc4c3F)c12
